Experimental data taken from PMC10892451, “Evaluation of the Antibacterial Activity of New Dermaseptin Derivatives against Acinetobacter baumannii” (Pharmaceuticals, 2024).
≈ marks a conversion by molar mass, not a printed value. Ends that are not written are not given here.

Key:
[1] = system: A. baumannii clinical specimen MDR; assay: microbe, parasite or virus in culture; details: for A. baumannii MBC: 10 μL of wells at or above MIC seeded onto Mueller-Hinton agar, clinical MDR isolate, triplicate
Procedure: After determining the MIC, the MBC was assessed against A. baumannii MDR. Meropenem was used as an antibacterial control drug. The loaded solvent saline served as a negative control. […] Meropenem targets Gram-positive and Gram-negative bacteria, as well as anaerobic bacteria. Similar to other carbapenems, meropenem disrupts the synthesis of bacterial cell walls, inhibiting growth and leading to cell death.
(§1) The bacterial strain used in the present study came from the stock culture of the microbiology laboratory of the Federal University of the Delta of Parnaíba—UFDPar, Parnaíba—PI, Brazil. The strain used in the tests was A. baumannii clinical specimen MDR (multidrug resistant), which developed resistance to major antibiotic classes and carbapenem-resistant isolates. Before performing all experiments, the selected strains were cultured in Petri dishes containing Mueller-Hinton agar (Difco™, Piaui, Brazil). Then, under aerobic conditions, they were incubated in a bacteriological oven for 24 h at 35 ± 2 °C. After incubation, the colonies that grew alone were collected with a disposable bacteriological loop and suspended in a sterile saline solution (0.85% NaCl (w/v), Parnaíba—UFDPar, Piaui, Brazil) in order to reach an absorbance pattern between 0.08 and 0.13 at 625 nm, as tested with a UV-vis spectrophotometer (Shimadzu, Japan), thus corresponding to 0.5 McFarland scale (1–2 × 10^8 CFU/mL), as recommended by the Clinical Laboratory Standards Institute CLSI [75]. Once standardized, the obtained bacterial suspension was used to prepare the bacterial inoculum used in the execution of MIC determination protocols.
(§2) In accordance with the standards recommended by CLSI [75], the antibacterial potential of the peptides was evaluated with the method of determining the MIC, i.e., the broth microdilution method. Using a 96-well microdilution plate (KASVI, Parnaíba, Brazil), the antibacterial effect was analyzed against the bacterial strains. Therefore, 5 μL of each peptide was added to the first line of the microtiter wells containing 195 μL Mueller-Hinton (M-H) broth (Life Technologies, New York, NY, USA), followed by two-fold serial dilutions with final concentrations ranging from 25 µg/mL to 0.19 µg/mL for all peptides. The volume of the bacterial inoculum was equal to 50 µL, which was added to the test wells with the M-H broth at the beginning of the experiment to give a final concentration of 5 × 10^5 CFU/mL and to reach a final volume of 100 μL in each well after discarding the last additional volume of 100 μL following the serial dilution. MIC was defined as the lowest concentration of an antibacterial agent expressed in μg/mL, which, under strictly controlled in vitro conditions, completely prevents visible bacterial growth after incubation for 24 h at 37 °C in aerobic conditions. […] All tests were performed in triplicate. In order to guarantee the quality and safety of the protocols of this study, the manipulation of bacterial strains was performed under aseptic conditions.

[2] = system: A. baumannii clinical specimen MDR; assay: microbe, parasite or virus in culture; details: for A. baumannii MIC: broth microdilution, Mueller-Hinton broth, 5 × 10^5 CFU/mL, 24 h at 37 °C, clinical MDR isolate, triplicate
Procedure: as §1, §2

HEp-2 cells [3] = assay: MTT cytotoxicity assay on HEp-2 cells; format: cell-based, human; details: peptide concentration causing 50% cytotoxicity, 72 h treatment, 1.5-100 μg/mL, triplicate at three different times
Procedure: It was obtained from the American Type Culture Collection (ATCC, Manassas, VA, USA). Cells were routinely maintained in a humidified atmosphere of 5% CO2 at 37 °C. The Culture Medium Dulbecco’s Modified Eagle Medium (DMEM) (Biofaster, Tunis, Tunisia) was supplemented with 1% L-glutamine, 1% penicillin/streptomycin and 10% (v/v) heat inactivated fetal bovine serum (FBS)(Biofaster, Tunis, Tunisia).
The cytotoxicity test consisted of measuring the viability of cells in culture when they came into contact with the peptides being tested. Cytotoxicity was determined using the 3-(4,5-dimethylthiazol-2-yl)-2,5-diphenyl tetrazolium bromide (MTT) colorimetric assay on cultured cells (HEp-2 lines). […] After 72 h of incubation, the supernatant was collected and the viability of the cells treated with the peptides was determined by the MTT method. […] After 4 h of incubation at 37 °C, the optical density (OD) was measured at 570 nm using an ELISA reader (Multiskan EX, Labsystems, Paris, France), after adding 100 μL of DMSO to dissolve the crystals of formazan. The results were expressed as a percentage of viability relative to the negative control without a peptide, according to the formula: (Viability percentage = (DO544 nm peptide/DO544 nm control) × 100). […]

A. baumannii MDR = assay: AFM average surface roughness of treated bacteria; format: cell-based, Acinetobacter baumannii; details: AFM tapping mode, bacteria from MIC assay wells after 24 h, n = 10 areas of 0.3 × 0.3 µm; non-treated bacteria 25.77 nm
Source text: In order to understand how our cationic peptide eliminates bacteria, we must consider its effect on the outer membrane found in Gram-negative bacteria. Here, we use atomic force microscopy (AFM) to directly investigate K4S4(1-16) interactions with the outer membrane of A. baumannii and characterize the biophysical consequences of K4S4(1-16) treatment. However, Gram-negative bacteria are complex organisms, with two membranes and molecular machinery dedicated to maintaining membrane stability. The images show the morphology of a clinical strain of A. baumannii before and after treatment with the derivative. […] The cell differed considerably from the cocci-bacilli-shaped cell observed without peptide treatment. Therefore, this cationic peptide appears to have a highly disruptive effect. […]
With the objective of observing possible morphological alterations caused by the action of an active peptide from the DRS families, bacterial growth control and bacteria treated with K4S4 (1-16) were evaluated using Atomic Force Microscopy (AFM). […]
Statistical analyses were performed with the GraphPad Prism 9.0 software (GraphPad Software Inc.) for cell viability assays. The difference between the average roughness (Ra) was statistically analyzed using t Test in the GraphPad Prism 8.0 software. […]

[4] = system: multi-drug resistant Salmonella Enteritidis; details: cited from earlier work
[5] = cited from earlier work
Procedure: (§3) Cells were exposed to increasing concentrations of peptides, ranging from 1.5 to 100 μg/mL. The cytotoxicity of DRSs was concentration dependent, and peptide 50% cytotoxic concentration (CC50) values were determined (Table 2).

[6] = cited from earlier work; remark: listed apart in the source
HEp-2 cells [7] = details: cited from earlier work
Procedure: as §3

Compound | A. baumannii MBC [1] [mg/L] | A. baumannii MIC [2] [mg/L] | other results
GLKKKIKEVGKEAAKAAAKAAGKAALGAVSEAV [K3K4B2] | 12.5 | 6.25 | 
ALWKTLLKKVLKAAAKAALKAVLVGANA [K4K20S4] | 6.25 | 3.125 | 
ALWKTLLKKVLKAAAK [K4S4(1-16)] | 12.5 | 6.25 | CC50 Hep-2 Cells (HEp-2 cells [3]): 68.9 mg/L; roughness on the cell surface after treatment (A. baumannii MDR): 43.41 nm
C[C@@H](O)[C@H]1C(=O)N2C(C(=O)O)=C(S[C@@H]3CN[C@H](C(=O)N(C)C)C3)[C@H](C)[C@H]12 [meropenem] |  |  | MBC ([1]; Acinetobacter baumannii, read-out: A. baumannii MBC): 64 mg/L (≈ 167 µM); MIC ([2]; Acinetobacter baumannii, 24 h, read-out: A. baumannii MIC): 32 mg/L (≈ 83.4 µM)
lactoferricin (17–30): other AMP from the literature (CLAAPRKNVRWCTI; ends and bridges not checked; cysteine pairing not given here; UniProt P24627 17-30, looked up, fragment) |  |  | MIC [4]: 128 mg/L; cytotoxicity at lower concentrations ([5]; 1X and 2X MIC): negligible cytotoxicity; cytotoxicity at 4X MIC ([5]; 4X MIC): slightly higher cytotoxicity
GLWSKIKEVGKEAAKAAAKAAGKAALGAVSEAV-OH [B2] | 25 | 12.5 | 
ALWMTLLKKVLKAAAKAALNAVLVGANA-OH [S4] | 25 | 12.5 | hemolytic effect [6]: potent hemolytic effect; maximal non-cytotoxic concentration (HEp-2 cells [7]): 16 µg/mL
